This assay concerns BDF1 mice, P388 leukemia ip, median survival T/C. The assay is described as follows: NCI In Vivo Anticancer Drug Screen. Data for tumor model P388 Leukemia (intraperitoneal) in B6D2F1 (BDF1) mice. The settings on record: endpoint: median survival time, higher = longer survival. In a few lines:
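Reported as T/C, where T is the survival measurement in dosed animals and C the same measurement in vehicle controls.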

Setting [1] is: dose: 100.0 mg/kg/injection, schedule: Q01DX009 (ip), vehicle: Klucel (hydroxypropylcellulose) (HPC).
The mark [2] stands for this setting: dose: 100.0 mg/kg/injection, schedule: Q04DX003 (ip), vehicle: Klucel (hydroxypropylcellulose) (HPC).
The mark [3] stands for this setting: dose: 200.0 mg/kg/injection, schedule: Q04DX003 (ip), vehicle: Klucel (hydroxypropylcellulose) (HPC).
Where [4] appears, read: dose: 400.0 mg/kg/injection, schedule: Q04DX003 (ip), vehicle: Klucel (hydroxypropylcellulose) (HPC).
Setting [5] is: dose: 50.0 mg/kg/injection, schedule: Q01DX009 (ip), vehicle: saline with Tween-80.
The mark [6] stands for this setting: dose: 50.0 mg/kg/injection, schedule: Q04DX003 (ip), vehicle: saline.
Setting [7] is: dose: 100.0 mg/kg/injection, schedule: Q04DX003 (ip), vehicle: saline.
[8] abbreviates: dose: 200.0 mg/kg/injection, schedule: Q04DX003 (ip), vehicle: saline.
Setting [9] is: dose: 12.5 mg/kg/injection, schedule: Q01DX009 (ip), vehicle: saline with Tween-80.
[10] abbreviates: dose: 25.0 mg/kg/injection, schedule: Q01DX009 (ip), vehicle: saline with Tween-80.
The mark [11] stands for this setting: dose: 100.0 mg/kg/injection, schedule: Q01DX009 (ip), vehicle: saline with Tween-80.
The mark [12] stands for this setting: dose: 400.0 mg/kg/injection, schedule: Q01DX009 (ip), vehicle: saline with Tween-80.
Where [13] appears, read: dose: 200.0 mg/kg/injection, schedule: Q01DX009 (ip), vehicle: saline with Tween-80.
Where [14] appears, read: dose: 100.0 mg/kg/injection, schedule: Q01DX001 (ip), vehicle: saline sonified.
The mark [15] stands for this setting: dose: 200.0 mg/kg/injection, schedule: Q01DX001 (ip), vehicle: saline sonified.

Values joined by “and” are separate entries in the source; they are usually repeats but may differ in a detail not shown here. Identical values can stand only once. Toxic doses and inconclusive results are not listed.

Consider `C[C@]12CCC(=O)C=C1CC[C@H]1[C@@H]3CC[C@](O)(C(=O)CO)[C@@]3(C)C[C@H](O)[C@@]12F`, for which the T/C runs as follows: (dose: 12.5 mg/kg/injection, schedule: Q01DX009 (ip), vehicle: Klucel (hydroxypropylcellulose) (HPC)) 104 % of control; (dose: 25.0 mg/kg/injection, schedule: Q01DX009 (ip), vehicle: Klucel (hydroxypropylcellulose) (HPC)) 109 % of control; (dose: 50.0 mg/kg/injection, schedule: Q01DX009 (ip), vehicle: Klucel (hydroxypropylcellulose) (HPC)) 109 % of control; under setting [1], 90 % of control; under setting [2], 120 % of control; under setting [3], 115 % of control. Further, under setting [4], the T/C was 90 % of control.
As to `[NH-]C(CCC(N)=O)C(=O)O.[NH-]C(CCCCN)C(=O)O.[Zn+2]` (stereo not given), under “dose: 50.0 mg/kg/injection, schedule: Q01DX005 (ip), vehicle: saline”, the T/C is 106 % of control.
On to `CCOC(=O)/C(C#N)=C/C=C1\C=CC=CN1C`, for which the T/C under setting [5] was 90 % of control.
With `NNC(=O)c1ccncc1`, the T/C (dose: 50.0 mg/kg/injection, schedule: Q01DX009 (ip), vehicle: saline) was 110 % of control; the T/C under setting [6] was 105 % of control; the T/C under setting [7] is 105 % of control; the T/C under setting [8] was 100 % of control.
Consider `CSc1nc2[nH]cnc(=S)c2[nH]1`, for which the T/C is 104 % of control (dose: 6.25 mg/kg/injection, schedule: Q01DX009 (ip), vehicle: saline with Tween-80); 104 % of control under setting [9]; 100 % of control under setting [10].
`CCN(CCNc1ccc(C)c2sc3ccccc3c(=O)c12)CC(C)(C)O`: the T/C (dose: 35.0 mg/kg/injection, schedule: Q01DX009 (ip), vehicle: saline) was 108 % of control; the T/C (dose: 44.0 mg/kg/injection, schedule: Q04DX003 (ip), vehicle: saline) is 105 % of control; the T/C (dose: 66.0 mg/kg/injection, schedule: Q04DX003 (ip), vehicle: saline) was 120 % of control; the T/C (dose: 100.0 mg/kg/injection, schedule: Q01DX009 (ip), vehicle: saline) was 159 % of control; the T/C (dose: 132.0 mg/kg/injection, schedule: Q04DX003 (ip), vehicle: saline) was 160 % of control; the T/C under setting [8] was 185 % of control. In addition, for the setting “dose: 225.0 mg/kg/injection, schedule: Q01DX009 (ip), vehicle: saline”, the T/C was 90 % of control.
As to `CCOC(=O)C(C)(C)CCl`, the T/C is, setting by setting: under setting [2], 90 % of control; under setting [3], 90 % of control; under setting [4], 100 % of control.
As for `CCOC(=O)C(Br)(C(=O)OCC)C(c1ccccc1)c1ccccc1`, the T/C was 95 % of control under setting [11] and 109 % of control under setting [12].
Turning to `[Cu+2].[O-]c1ccc(Br)c2cccnc12.[O-]c1ccc(Br)c2cccnc12`, the T/C reads like this: (dose: 12.5 mg/kg/injection, schedule: Q04DX003 (ip), vehicle: saline with Tween-80) 100 % of control; (dose: 25.0 mg/kg/injection, schedule: Q04DX003 (ip), vehicle: saline with Tween-80) 90 % of control; (dose: 50.0 mg/kg/injection, schedule: Q04DX003 (ip), vehicle: saline with Tween-80) 95 % of control; (dose: 75.0 mg/kg/injection, schedule: Q04DX003 (ip), vehicle: saline with Tween-80) 90 % of control.
As to `Cc1cc(Cl)ccc1NC(=O)N1c2ccccc2SC12CCCC2`, the T/C reads like this: under setting [5], 97 % of control; under setting [11], 91 % of control; under setting [13], 104 % of control.
For the compound `CCCCN(CCO)C(C#CC(C)(C)O)C(C)C` (stereo not given), the T/C by setting is: (dose: 50.0 mg/kg/injection, schedule: Q01DX001 (ip), vehicle: saline sonified) 110 % of control; under setting [14], 110 % of control; under setting [15], 105 % of control.
For `O=[N+]([O-])c1ccc(Sc2cccs2)c([N+](=O)[O-])c1`, the T/C under setting [11] is 100 % of control; the T/C (dose: 100.0 mg/kg/injection, schedule: Q04DX003 (ip), vehicle: saline with Tween-80) was 104 % of control; the T/C under setting [13] is 95 % of control; the T/C (dose: 200.0 mg/kg/injection, schedule: Q04DX003 (ip), vehicle: saline with Tween-80) was 95 % of control; the T/C under setting [12] is 108 % of control; the T/C (dose: 400.0 mg/kg/injection, schedule: Q04DX003 (ip), vehicle: saline with Tween-80) was 100 % of control.
In the case of `O=[N+]([O-])c1cc([N+](=O)[O-])c(NN(c2ccccc2)c2cccc3ccccc23)c([N+](=O)[O-])c1`, the T/C is 91 % of control under setting [2], 116 % of control under setting [3] and 87 % of control under setting [4].
With `O=N[O-].[Co].[NH2-].[NH2-].[NH2-].[NH2-].[NH2-]`, the T/C was 95 % of control (dose: 12.5 mg/kg/injection, schedule: Q04DX003 (ip), vehicle: saline); 100 % of control (dose: 25.0 mg/kg/injection, schedule: Q04DX003 (ip), vehicle: saline); 100 % of control under setting [6].
As to `COC(CNC(=O)Nc1cccnc1)[CH2][Hg][Cl]` (stereo not given), the T/C is 90 % of control under setting [9], 104 % of control under setting [10] and 100 % of control under setting [5].
For the compound `Nc1ccccc1C(=O)N/N=C\c1ccc(O)cc1`, the T/C runs as follows: under setting [11], 110 % of control; under setting [13], 94 % of control.
Turning to `COC(=O)CCCc1cc(O)c2c(c1O)C(=O)c1ccccc1C2=O`, the T/C was 100 % of control under setting [14]; 100 % of control under setting [15]; 95 % of control (dose: 400.0 mg/kg/injection, schedule: Q01DX001 (ip), vehicle: saline sonified).
With `C=C(COc1ccc(Cl)cc1)COc1ccc(Cl)cc1`, the T/C (dose: 50.0 mg/kg/injection, schedule: Q01DX001 (ip), vehicle: other) was 103 % of control; the T/C (dose: 50.0 mg/kg/injection, schedule: Q04DX003 (ip), vehicle: other) is 100 % of control; the T/C (dose: 100.0 mg/kg/injection, schedule: Q01DX001 (ip), vehicle: other) was 100 % of control; the T/C (dose: 100.0 mg/kg/injection, schedule: Q04DX003 (ip), vehicle: other) is 91 % of control; the T/C (dose: 200.0 mg/kg/injection, schedule: Q01DX001 (ip), vehicle: other) is 94 % of control; the T/C (dose: 200.0 mg/kg/injection, schedule: Q04DX003 (ip), vehicle: other) was 101 % of control. In addition, the T/C is, setting by setting: (dose: 400.0 mg/kg/injection, schedule: Q01DX001 (ip), vehicle: other) 102 % of control; (dose: 400.0 mg/kg/injection, schedule: Q04DX003 (ip), vehicle: other) 93 % of control.
Turning to `COC1CCC(C)(C=O)C(C#N)(C#N)C1(C#N)C#N` (stereo not given), the T/C (dose: 12.5 mg/kg/injection, schedule: Q01DX001 (ip), vehicle: saline with Tween-80) was 98 % of control; the T/C (dose: 25.0 mg/kg/injection, schedule: Q01DX001 (ip), vehicle: saline with Tween-80) was 114 % of control; the T/C (dose: 50.0 mg/kg/injection, schedule: Q01DX001 (ip), vehicle: saline with Tween-80) was 109 % of control.
With `CS(=O)(=O)CCN(N=O)C(=N)N[N+](=O)[O-]`, the T/C runs as follows: (dose: 19.0 mg/kg/injection, schedule: Q04DX003 (ip), vehicle: saline with Tween-80) 113 % of control; (dose: 150.0 mg/kg/injection, schedule: Q04DX003 (ip), vehicle: saline with Tween-80) 150 % of control.
For `O=C(O)c1ccc(SSc2ccc(C(=O)O)cn2)nc1`, the T/C was 92 % of control and 104 % of control under setting [1]; 100 % of control under setting [2]; 118 % of control under setting [7]; 109 % of control and 119 % of control (dose: 200.0 mg/kg/injection, schedule: Q01DX009 (ip), vehicle: Klucel (hydroxypropylcellulose) (HPC)); 100 % of control under setting [3]; 109 % of control under setting [8]. Besides, the T/C runs as follows: (dose: 400.0 mg/kg/injection, schedule: Q01DX009 (ip), vehicle: Klucel (hydroxypropylcellulose) (HPC)) 107 % of control and 109 % of control; under setting [4], 100 % of control; (dose: 400.0 mg/kg/injection, schedule: Q04DX003 (ip), vehicle: saline) 113 % of control.

Values taken from PubChem BioAssay AID328 (DTP/NCI, 2004).
